Laboratory results from patent US11638709B2, “Rucaparib, Talazoparib, Veliparib, Olaparib and AZD 2461 for treating impaired skin wound healing” (AKRIBES BIOMEDICAL GMBH, priority 2017, dated 2023).

Columns and labels:
[1] = tested on: IL-1ß secretion by primary human dermal fibroblasts; experiment: IL-1ß secretion in the HDF proliferation assay with wound exudate (ELISA); type: cell-based; details: FIG. 20
Protocol: At the end of the 72-hour incubation period, supernatants were removed for the determination of IL-1ß, and the cells were fixed with 4% paraformaldehyde (Morphisto) for 15 minutes at room temperature and washed 3 times with PBS. A control plate was fixed after the overnight adherence of the cells (day 1) to determine the starting cell number.
IL-1ß levels were determined with a commercial ELISA kit. The amount of IL-1ß contained in the wound exudate added to the cells was subtracted from the total IL-ß in the supernatants in order to determine the cytokine secreted by the cells.

[2] = tested on: macrophages in co-culture with fibroblasts; experiment: Fibroblast-macrophage coculture with wound exudate (FACS, ELISA); type: cell-based, human; details: wound exudate #78; for percentage of live cells in the FACS CD45-gate (macrophages): FIG. 17 A; for macrophage M2 marker CD206: FIG. 17 B; for proinflammatory cytokine IL-1α induced by wound exudate: FIG. 17 C
Protocol: CD14^+ monocytes, isolated from PBMC of healthy donors by magnetic bead separation were incubated either alone or in the presence of primary human dermal fibroblasts (CellNTec) or fibroblast-derived matrices (FDM). FDM had been generated from primary human dermal fibroblasts by a 3-week incubation with the growth supplements vitamin C or insulin and EGF (vitamin C: 2-phospho-L-ascorbic acid trisodium salt, 100 μg/ml; human EGF, 5 ng/ml; human insulin, 5 μg/ml). Alternatively, fibroblast monolayer cultures can be used as well. After 4 days to a week to allow for macrophage differentiation in the presence or absence of M-CSF (25 ng/ml), the cultures were stimulated overnight with graded concentrations of test compounds in the absence or presence of various dilutions of sterile-filtered WE. IFN-g (50 ng/ml), LPS (100 ng/ml) and IL-4 (25 ng/ml) or combinations thereof served as controls for M1 and M2 macrophage induction. For negative control samples, medium was added instead of specific stimuli. WE were added to the culture medium for overnight stimulation at dilutions ranging from 1:25 to 1:100.
Supernatants were harvested and frozen for cytokine determination by ELISA, and cells were harvested and subjected to FACS analysis, gating on the monocyte population. Geometric means or mean fluorescence intensities (MFI) were used to quantify surface marker expression.
ELISA: CXCL10 and IL-23p19 for M1 macrophages and CCL22 and CCL18 as M2 macrophage markers, IL-1alpha, IL-1beta and TNF-alpha as pro-inflammatory markers indicative of an M1 phenotype.
Cells were harvested and resuspended in FACS buffer (PBS containing 2% FCS). Unspecific antibody binding was prevented by incubation with human Trustain FCR blocking solution (Biolegend, #422302) on ice for 10 minutes. The following fluorchrome-conjugated antibodies from eBioscience (now ThermoFisher Scientific) were used to detect specific surface markers by staining on ice for 30 minutes: CD38-PerCPeFluor710 (#46-0388-42), CD197-APC (#17-1979-42), CD206-AF488 (#53-2069-42), CD209-PerCP Cy5.5 (#45-2099-42). Co-staining with CD45 eFluor (#506 69-0459-42) was used to distinguish macrophages from primary human fibroblasts when analyzed from co-cultures. After washing cells with FACS buffer, they were fixed with 1% paraformaldehyde in PBS and stored at 4° C. in the dark until data were acquired on a Gallios flow cytometer from Beckman Coulter and analyzed with the Kaluza analysis software 1.3.

[3] = tested on: wound exudate-induced pig wounds; experiment: Porcine model of delayed wound healing induced by human wound exudates; type: in vivo; details: veliparib 10 mM, talazoparib 1 mM
Description: The pig is regarded as the species with the highest correlation to man in skin anatomy and physiology. Pig wounds tend to heal by a combination of granulation tissue formation and contraction, similar to human wounds, and porcine wound healing studies show a high concordance with human studies. We developed a chronically inflamed porcine wound model. Acute pig wounds were stimulated by a combination of human chronic wound fluids and the toll-like receptors 7 and 8 (TLR7,8) agonist resiquimod (R848).
Female domestic white pigs at the age of 10-12 weeks and a body weight of approximately 12 kg were sedated with 20 mg Ketamin/2 mg Xylacin i.m. followed by inhalation anesthesia via Isofluran. Immediately after induction of anesthesia, a fentanyl transdermal patch (50 μg/h) was applied to control postsurgical pain. The fentanyl patch was replaced daily for the first 3 days after surgery and afterwards only when signs of pain were apparent. Before wounding, the back hair of the animals was clipped and the skin was cleaned with Braunol and disinfected with Skinsept. Then a total of 24 full-thickness excisional wounds per animal were applied using a 6 mm disposable biopsy punch. Immediately after wounding 50 μl of a 0.05% R848 gel was applied topically to the wounds which were covered with dressing (Mölnlycke Health Care AB, Sweden). 6 hours later, the wounds were treated with 3% HPMC (hydroxypropyl methylcellulose)-gellified human wound exudates or human serum as controls. Wound exudates had been harvested from negative pressure wound therapy systems used to treat patients diagnosed with chronic ulcers. Induction of wound inflammation by R848 and wound exudate was carried out for a total of 5 consecutive days.
From day 6 to day 10, veliparib and talazoparib at 10 mM and 1 mM, respectively, were dissolved in vehicle (50% propylene glycol/47.5% water/0.5% Tween 80/2.0% HPMC), applied to the wounds once daily and covered with dressing. Until day 12, wounds and surrounding skin were clinically examined once daily, upon dressing change, and observed changes were scored on a scale from 0-3. The following criteria were used:
The total achievable score (non-healing) is 19. Healing is associated with low scores.

[4] = tested on: primary human dermal fibroblasts (HDF); experiment: Fibroblast-derived matrix (FDM) formation assay (3D) with wound exudate; type: cell-based; details: for 3D fibroblast culture (FDM formation), effect of PARP inhibitors: FIG. 7, WE from patient #78
Protocol: HDF cells were seeded at 5000 cells/well on day −3 into 96-well tissue culture plates (1250 cells/well for 384-well plates), which had been pre-coated for 1 hour at 37° C. with 0.2% gelatin solution (Sigma). When the cells reached confluence (=day 0), a matrix promoting supplement (vitamin C: 2-phospho-L-ascorbic acid trisodium salt, 100 μg/ml; Sigma) was added together with test samples containing PDGF-BB, TGF-ß1 or graded concentrations of compounds −/+WE as described for the HDF proliferation assay. After 4 days, medium was replaced by fresh vitamin C—and stimulus—as well as compound-containing medium, maintaining the conditions initiated on day 0. TGF-ß1 and PDGF-BB were included as positive controls to promote FDM formation and cell growth, respectively. After a total incubation time of 8 days, FDM production was measured in fixed cultures via SRB staining and evaluated as described above. In some cases, the experiment was stopped and evaluated already on day 4.
Low molecular weight compounds (see list in Table 1) were dissolved in DMSO (Bioreagent for cell culture, Sigma) at 10 mM or 100 mM and diluted at least 1:1000 in medium for cellular assays (final DMSO concentration ≤0.1%).
Cells were incubated with compounds for 72 hours in proliferation assays and up to 8 days for FDM assay (refreshed after 4 days). When compounds were tested for their effect on WE stimulation, the incubation of cells with compounds was started and ended simultaneously with WE-incubation.

[5] = FIG. 18, induced by WE #91, topical once daily day 6-10
[6] = FIG. 19, induced by WE #43, day 6-10
[7] = FIG. 4, 3D fibroblast culture with WE

Row | Structure (SMILES) | wound exudate-induced IL-1ß secretion [1] | percentage of live cells in the FACS CD45-gate (macrophages) [2] | macrophage M2 marker CD206 [2] | proinflammatory cytokine IL-1α induced by wound exudate [2] | delayed pig wound healing (time course, clinical score) [3, 5] | delayed pig wound healing (time course, clinical score) [3, 6] | formation of fibroblast-derived matrix, optically evaluated by microscopy [4, 7] | formation of fibroblast-derived matrix, optically evaluated by microscopy ([4]; FIG. 4, 3D fibroblast culture with WE, listed as talazoparib) | 3D fibroblast culture (FDM formation), effect of PARP inhibitors [4] | 3D fibroblast culture (FDM formation), effect of PARP inhibitors ([4]; listed as talazoparib) | formation of fibroblast-derived matrix, combination with dexamethasone ([4]; FIG. 4, 3D fibroblast culture with WE, microscopy) | formation of fibroblast-derived matrix, veliparib and glucocorticoids combined ([4]; FIG. 5, WE of patient #78 (diabetes, immunosuppression after kidney transplantation)) | formation of fibroblast-derived matrix, veliparib and glucocorticoids combined ([4]; FIG. 6, WE of patient #49 (non-diabetic, non-immunosuppressed))
1 | Cn1ncnc1[C@H]1c2n[nH]c(=O)c3cc(F)cc(c23)N[C@@H]1c1ccc(F)cc1 [Talazoparib] | reducing IL-1ß secretion | dose-dependently increased | dose-dependently increased | reduced | improve wound healing | improves wound healing | “cleaned up” WE-induced fibroblast matrix inhibition | particularly strong and beneficial | most active of the PARP inhibitors tested in 3D culture | strong and consistent positive effect |  |  | 
2 | C[C@]1(c2nc3c(C(N)=O)cccc3[nH]2)CCCN1 [Veliparib, 2-((2R)-2-methylpyrrolidin-2-yl)-1H-benzimidazole-4-carboxamide] | reducing IL-1ß secretion | dose-dependently increased | dose-dependently increased | reduced | improve wound healing | only a minor effect | “cleaned up” WE-induced fibroblast matrix inhibition |  | strong and consistent positive effect |  | superior to each substance alone | enhances the effect of glucocorticoids | could be enhanced with glucocorticoids, but not vice versa
